One test concerns the target T1, IGF-1 receptor (Homo sapiens, UniProt P08069).
T1 construct: expressed in transfected cells; host or cells: NIH3T3/IGF-1R
The test is described as follows: Cellular IGF-1 receptor assay (cell IGF). On cell IGF, outcome of primary assay: key: DNH = did not hit in primary assay. In kind it is cell-based. To be noted: for pIC50: 50% inhibition of target PTK activity. As for the experimental part: The following protocol may be used to measure phosphotyrosine level on IGF-1 receptor, which indicates IGF-1 receptor tyrosine kinase activity.
a. The cell line used in this assay is 3T3/IGF-1R, a cell line genetically engineered to overexpresses IGF-1 receptor.
2. […] Incubate for 1 day then replace medium to serum-free medium (90/μl) and incubate in 5% CO2 and 37° C. overnight.
2. Remove the coating solution, and replace with 100 μl Blocking Buffer, and shake for 30 minutes. Remove the blocking buffer and wash the plate just before adding lysate.
1. The drugs are tested under serum-free condition.
2. Dilute drug stock (in 100% DMSO) 1:10 with DMEM in 96-well poly-propylene plate, and transfer 10 μl/well of this solution to the cells to achieve final drug dilution 1:100, and final DMSO concentration of 1.0%. Incubate the cells in 5% CO2 at 37° C. for 2 hours.
3. Prepare fresh cell lysis buffer (HNTG*)
4. After drug incubation for two hours, transfer 10 μl/well of 200 nM IGF-1 Ligand in PBS to the cells (Final Conc. is 20 nM), and incubate at 5% CO2 at 37° C. for 10 minutes.
5. Remove media and add 100 μl/well HNTG* and shake for 10 minutes. Look at cells under microscope to see if they are adequately lysed.
6. Use a 12-channel pipette to scrape the cells from the plate, and homogenize the lysate by repeated aspiration and dispensing. Transfer all the lysate to the antibody coated ELISA plate, and shake for 1 hour.
7. Remove the lysate, wash the plate, transfer anti-pTyr (1:3,000 with TBST) 100 μl/well, and shake for 30 minutes.
8. Remove anti-pTyr, wash the plate, transfer TAGO (1:3,000 with TBST) 100 μl/well, and shake for 30 minutes.
9. Remove detection antibody, wash the plate, and transfer fresh ABTS/H2O2 (1.2 μl H2O2 to 10 ml ABTS) 100 μl/well to the plate to start color development.
10. Measure OD at 410 nm with a reference wavelength of 630 nm in Dynatec MR5000.

For a further test, the target named is Pyk2 (Homo sapiens, UniProt Q14289). Kind of test: Pyk2 assay. On Pyk2, outcome of primary assay: key: DNH = did not hit in primary assay. It counts as biochemical.
For a further test, the target named is T2, PDGFR (Homo sapiens, UniProt P09619).
T2 construct: expressed in transfected cells; host or cells: NIH 3T3
The test is described as follows: Biochemical PDGFR assay (bio PDGFR), ELISA. How it is done: This assay measures the in vitro kinase activity of PDGFR using ELISA.
6. PDGFR-β expressing NIH 3T3 cell lysate (Screening Lab, SUGEN, Inc.).
1. Coat Corning 96 well ELISA plates with 0.5 μg 28D4C10 in 100 μl PBS per well, store overnight at 4° C.
2. Remove unbound 28D4C10 from wells by inverting plate to remove liquid. Wash 1× with dH2O. Pat the plate on a paper towel to remove excess liquid.
(§1) 3. Add 150 μl of Blocking Buffer to each well. Incubate for 30 min. at room temperature with shaking.
(§2) 4. Wash plate 3× with deionized water, then once with TBST. Pat plate on a paper towel to remove excess liquid and bubbles.
5. Dilute lysate in HNTG (10 μg lysate/100 μl HNTG)
(§3) 6. Add 100 μl of diluted lysate to each well. Shake at room temperature for 60 min.
(§4) 7. Wash plates as described in 4, above.
8. Add 80 μl working kinase buffer mix to ELISA plate containing captured PDGFR.
10. Add 10 μl diluted test compound to ELISA plate.
(§5) 11. Incubate for 30 minutes while shaking at room temperature.
12. Add 10 μl ATP directly to all wells except negative control well (final well volume should be approximately 100 μl with 20 μM ATP in each well.) Incubate 30 minutes while shaking.
13. After 30 minutes, stop reaction by adding 10 μl of 200 mM EDTA (pH 8.0) to each well.
(§6) 14. Wash 4× with deionized water, twice with TBST.
15. Add 100 μl anti-phosphotyrosine (1:3000 dilution in TBST) per well. Incubate 30-45 min. at room temperature, with shaking.
(§7) 16. Wash as described in 4, above.
17. […] Incubate 30 min. at room temperature, with shaking.
(§8) 18. Wash as described in 4, above.
(§9) 19. Add 100 μl of ABTS/H2O2 solution to each well.
20. Incubate 10 to 30 minutes with shaking. Remove any bubbles.
(§10) 21. If necessary stop reaction with the addition of 100 μl 0.2 M HCl per well.
In general terms: In an ELISA, binding on a coated surface is turned into a signal by an enzyme label.

A further test addresses EGFR (Homo sapiens, UniProt P00533). Kind of test: Biochemical EGFR assay (bio EGFR), ELISA. Details: A431 cell lysate (Screening Lab, SUGEN, Inc.); endogenous in cells; host or cells: A431. To be noted: 50% inhibition of target PTK activity; read-out: bio EGFR (Page 5) IC50. As for the experimental part: This assay measures the in vitro kinase activity of EGFR using ELISA.
6. A431 cell lysate (Screening Lab, SUGEN, Inc.)
1. Coat Corning 96 well ELISA plates with 0.5 μg […] in
100 μl PBS per well, store overnight at 4° C.
2. Remove unbound SUMO1 from wells by inverting plate to remove liquid. Wash 1× with dH2O. Pat the plate on a paper towel to remove excess liquid.
as §1, §2
5. Dilute lysate in PBS (7 μg lysate/100 μl PBS).
as §3, §4
8. Add 120 μl TBS to ELISA plate containing captured EGFR.
9. Dilute test compound 1:10 in TBS in 96-well polypropylene plates (ie. 10 μl compound+90 μl TBS).
10. Add 13.5 μl diluted test compound to ELISA plate.
as §5
13. After 5 minutes, stop reaction by adding 16.5 μl of 200 mM EDTA (pH 8.0) to each well, shaking continuously. After the EDTA has been added, shake for 1 min.
as §6
15. Add 100 μl anti-phosphotyrosine (1:3000 dilution.in TBST) per well. Incubate 30-45 min. at room temperature, with shaking.
as §7
17. Add 100 μl Biosource Goat anti-rabbit IgG peroxidase conjugate (1:2000 dilution in TBST) to each well. Incubate 30 min. at room temperature, with shaking.
as §8, §9
20. Incubate 5 to 10 minutes with shaking. Remove any bubbles.
as §10
22. Read assay on Dynatech MR7000 ELISA reader. Test Filter: 410 nM Reference Filter: 630 nM

Setting [1] is: 50% inhibition of target PTK activity, read-out: Pyk2 IC50.
Where [2] appears, read: 50% inhibition of target PTK activity, read-out: bio PDGFR IC50.
Setting [3] is: bio PDGFR IC50, 50% inhibition of target PTK activity.

pIC50: −log10 of the molar value. Several values for one entry are separate records, joined by “and”; a condition that tells them apart may be missing. Identical values can stand only once. Like-named read-outs stand apart in the source and are kept apart here. A value given as a limit tells only on which side of the number the result lay.

EGFR, sequence (P00533 25-1210): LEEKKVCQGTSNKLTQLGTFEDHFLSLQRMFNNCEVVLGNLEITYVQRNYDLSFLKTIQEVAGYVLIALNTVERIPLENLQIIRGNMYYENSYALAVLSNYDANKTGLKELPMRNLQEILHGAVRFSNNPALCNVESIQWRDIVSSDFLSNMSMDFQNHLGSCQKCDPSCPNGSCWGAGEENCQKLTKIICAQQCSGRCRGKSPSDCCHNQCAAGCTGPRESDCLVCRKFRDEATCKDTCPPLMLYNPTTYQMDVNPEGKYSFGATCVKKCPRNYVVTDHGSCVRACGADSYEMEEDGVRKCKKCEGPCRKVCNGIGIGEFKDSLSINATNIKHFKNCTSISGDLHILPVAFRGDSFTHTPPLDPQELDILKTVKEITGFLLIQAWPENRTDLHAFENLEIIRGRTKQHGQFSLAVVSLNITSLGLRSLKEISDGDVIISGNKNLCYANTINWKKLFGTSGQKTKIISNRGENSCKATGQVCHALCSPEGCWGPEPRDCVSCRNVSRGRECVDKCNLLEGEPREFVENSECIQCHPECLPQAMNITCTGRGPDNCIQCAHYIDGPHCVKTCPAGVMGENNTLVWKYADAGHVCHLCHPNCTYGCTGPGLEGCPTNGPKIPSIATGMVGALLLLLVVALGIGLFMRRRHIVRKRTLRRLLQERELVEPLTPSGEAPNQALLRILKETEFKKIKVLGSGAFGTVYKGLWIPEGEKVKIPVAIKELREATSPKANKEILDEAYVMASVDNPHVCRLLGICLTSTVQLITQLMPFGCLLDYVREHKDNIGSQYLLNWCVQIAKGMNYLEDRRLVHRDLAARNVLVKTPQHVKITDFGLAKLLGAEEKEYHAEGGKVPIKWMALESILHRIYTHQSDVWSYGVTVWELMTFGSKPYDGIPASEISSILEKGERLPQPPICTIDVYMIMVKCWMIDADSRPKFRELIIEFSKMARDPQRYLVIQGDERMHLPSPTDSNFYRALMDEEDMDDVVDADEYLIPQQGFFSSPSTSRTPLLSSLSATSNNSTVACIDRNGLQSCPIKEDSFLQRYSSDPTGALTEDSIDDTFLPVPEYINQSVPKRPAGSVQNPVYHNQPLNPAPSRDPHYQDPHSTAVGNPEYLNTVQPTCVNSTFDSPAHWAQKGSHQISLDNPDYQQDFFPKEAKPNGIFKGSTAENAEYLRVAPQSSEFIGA
Pyk2, sequence (Q14289 whole entry, species assumed): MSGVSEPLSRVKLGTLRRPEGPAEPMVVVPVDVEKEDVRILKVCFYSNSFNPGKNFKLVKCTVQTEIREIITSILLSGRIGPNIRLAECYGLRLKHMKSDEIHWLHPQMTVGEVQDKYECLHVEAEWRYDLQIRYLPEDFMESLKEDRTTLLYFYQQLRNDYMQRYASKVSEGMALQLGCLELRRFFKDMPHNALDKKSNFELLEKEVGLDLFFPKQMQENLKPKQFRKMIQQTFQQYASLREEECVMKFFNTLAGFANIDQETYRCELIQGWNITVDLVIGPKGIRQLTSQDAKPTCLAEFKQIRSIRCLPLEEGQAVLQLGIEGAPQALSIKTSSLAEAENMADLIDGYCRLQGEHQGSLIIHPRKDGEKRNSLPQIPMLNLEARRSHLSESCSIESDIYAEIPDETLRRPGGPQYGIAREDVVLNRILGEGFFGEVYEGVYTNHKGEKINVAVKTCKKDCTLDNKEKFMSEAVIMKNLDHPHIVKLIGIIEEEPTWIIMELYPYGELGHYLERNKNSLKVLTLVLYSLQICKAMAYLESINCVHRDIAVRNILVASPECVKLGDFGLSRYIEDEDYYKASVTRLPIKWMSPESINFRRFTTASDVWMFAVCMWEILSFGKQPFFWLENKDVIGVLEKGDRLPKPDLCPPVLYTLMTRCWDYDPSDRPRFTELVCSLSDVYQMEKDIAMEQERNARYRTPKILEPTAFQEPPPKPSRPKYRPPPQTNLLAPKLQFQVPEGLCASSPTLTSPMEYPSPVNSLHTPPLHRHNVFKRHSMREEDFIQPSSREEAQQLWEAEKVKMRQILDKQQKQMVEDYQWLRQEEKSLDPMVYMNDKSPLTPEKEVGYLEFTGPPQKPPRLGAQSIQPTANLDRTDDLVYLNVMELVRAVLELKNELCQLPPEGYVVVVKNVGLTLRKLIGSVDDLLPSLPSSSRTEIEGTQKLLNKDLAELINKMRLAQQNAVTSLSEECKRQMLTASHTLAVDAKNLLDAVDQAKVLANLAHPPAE
T2 sequence (P09619 33-1106, species assumed): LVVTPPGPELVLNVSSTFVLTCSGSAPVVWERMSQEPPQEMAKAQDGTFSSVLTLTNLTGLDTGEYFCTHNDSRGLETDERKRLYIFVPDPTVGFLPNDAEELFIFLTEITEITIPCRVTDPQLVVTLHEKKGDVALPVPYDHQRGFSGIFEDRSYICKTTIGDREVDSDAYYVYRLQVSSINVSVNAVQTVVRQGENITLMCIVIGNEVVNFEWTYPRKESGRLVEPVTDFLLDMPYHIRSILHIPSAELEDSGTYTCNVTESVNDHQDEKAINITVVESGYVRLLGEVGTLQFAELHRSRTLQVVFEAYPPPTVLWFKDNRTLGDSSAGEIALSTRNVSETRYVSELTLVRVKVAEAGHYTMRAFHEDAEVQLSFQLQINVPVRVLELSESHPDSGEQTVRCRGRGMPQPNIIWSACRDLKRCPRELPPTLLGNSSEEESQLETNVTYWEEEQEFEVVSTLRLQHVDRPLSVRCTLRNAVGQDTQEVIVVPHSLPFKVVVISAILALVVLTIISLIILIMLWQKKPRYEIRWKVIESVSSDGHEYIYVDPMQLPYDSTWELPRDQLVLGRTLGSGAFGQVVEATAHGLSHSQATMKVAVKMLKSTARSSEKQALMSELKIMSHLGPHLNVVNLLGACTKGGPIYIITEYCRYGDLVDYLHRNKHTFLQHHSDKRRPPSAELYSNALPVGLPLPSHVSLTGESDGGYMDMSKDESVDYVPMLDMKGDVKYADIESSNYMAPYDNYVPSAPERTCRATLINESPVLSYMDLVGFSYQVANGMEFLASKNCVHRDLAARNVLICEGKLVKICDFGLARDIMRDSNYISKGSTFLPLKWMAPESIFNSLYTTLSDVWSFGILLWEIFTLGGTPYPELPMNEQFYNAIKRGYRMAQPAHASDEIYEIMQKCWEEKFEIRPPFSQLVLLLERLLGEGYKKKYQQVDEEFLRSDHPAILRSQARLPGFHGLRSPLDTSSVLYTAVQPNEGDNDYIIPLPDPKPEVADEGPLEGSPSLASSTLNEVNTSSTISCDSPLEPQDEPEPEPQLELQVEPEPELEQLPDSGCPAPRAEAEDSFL
T1 sequence (P08069 31-1367): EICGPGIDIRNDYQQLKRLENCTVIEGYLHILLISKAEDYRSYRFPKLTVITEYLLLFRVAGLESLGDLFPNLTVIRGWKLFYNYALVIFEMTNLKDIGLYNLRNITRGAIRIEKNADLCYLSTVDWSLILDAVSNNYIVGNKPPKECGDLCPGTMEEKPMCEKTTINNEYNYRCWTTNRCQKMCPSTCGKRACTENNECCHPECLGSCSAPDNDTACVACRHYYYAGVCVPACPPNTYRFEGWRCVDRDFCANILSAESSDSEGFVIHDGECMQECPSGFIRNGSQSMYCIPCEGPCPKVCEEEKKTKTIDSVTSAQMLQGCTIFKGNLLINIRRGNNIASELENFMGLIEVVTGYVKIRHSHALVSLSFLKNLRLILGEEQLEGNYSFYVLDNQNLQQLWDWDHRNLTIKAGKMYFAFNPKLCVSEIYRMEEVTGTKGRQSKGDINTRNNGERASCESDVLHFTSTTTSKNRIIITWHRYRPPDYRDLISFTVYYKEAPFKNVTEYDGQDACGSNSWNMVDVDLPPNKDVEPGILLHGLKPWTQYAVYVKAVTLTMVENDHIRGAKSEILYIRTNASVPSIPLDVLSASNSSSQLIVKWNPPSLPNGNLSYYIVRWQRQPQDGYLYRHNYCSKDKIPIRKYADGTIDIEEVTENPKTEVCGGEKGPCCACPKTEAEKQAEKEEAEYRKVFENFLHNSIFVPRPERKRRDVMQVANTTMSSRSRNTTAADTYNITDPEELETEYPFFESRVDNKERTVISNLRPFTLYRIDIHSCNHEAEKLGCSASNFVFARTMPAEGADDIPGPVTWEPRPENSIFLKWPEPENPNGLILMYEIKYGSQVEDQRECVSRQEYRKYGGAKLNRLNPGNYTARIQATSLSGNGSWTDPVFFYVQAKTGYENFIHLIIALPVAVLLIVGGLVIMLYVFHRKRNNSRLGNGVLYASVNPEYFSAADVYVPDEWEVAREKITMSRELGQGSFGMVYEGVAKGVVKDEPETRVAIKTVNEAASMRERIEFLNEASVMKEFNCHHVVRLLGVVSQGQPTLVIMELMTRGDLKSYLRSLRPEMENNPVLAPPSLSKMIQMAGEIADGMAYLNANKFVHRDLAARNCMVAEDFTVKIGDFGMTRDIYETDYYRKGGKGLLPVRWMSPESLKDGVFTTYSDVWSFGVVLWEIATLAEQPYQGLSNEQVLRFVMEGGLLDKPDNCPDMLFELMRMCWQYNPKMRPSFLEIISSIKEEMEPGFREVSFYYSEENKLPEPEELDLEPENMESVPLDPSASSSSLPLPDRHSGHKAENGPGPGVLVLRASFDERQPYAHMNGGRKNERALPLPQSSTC

Turning to `CC1C/C(=C2/C(=O)Nc3ccccc32)c2ccccc21` (stereo not shown) [Compound 1, 3-(3-methylindan-1-ylidene)-1,3-dihydroindol-2-one], the “cell IGF, outcome of primary assay” value on IGF-1 receptor is given as “DNH”. For the same compound, the pIC50 on Pyk2 (setting [1]), on PDGFR (setting [2]) and on EGFR was < 4.00 each time.
As for `Cc1cccc2c1CC/C2=C1/C(=O)Nc2ccccc21` [Compound 2, 3-(4-Methylindan-1-ylidene)-1,3-dihydroindol-2-one], the “cell IGF, outcome of primary assay” value at IGF-1 receptor is reported as “DNH”. The “Pyk2, outcome of primary assay” value at Pyk2 is given as “DNH”. Moreover, the pIC50 on PDGFR (setting [2]) and at EGFR was < 4.00 throughout.
As to `COc1ccc2c(c1)CC/C2=C1/C(=O)Nc2ccccc21` [Compound 3, 3-(5-Methoxyindan-1-ylidene)-1,3-dihydroindol-2-one], the “cell IGF, outcome of primary assay” value at IGF-1 receptor is given as “DNH”. Also, on Pyk2 (concentration not given), the “Pyk2 % Inh” value turned out to be 56%. On Pyk2, the “Pyk2, outcome of primary assay” value was “DNH”. Further, the negative-log IC50 (pIC50) at PDGFR (setting [3]) is 4.06; on EGFR, < 4.00.
With `CN(C)c1ccc2c(c1)CC/C2=C1/C(=O)Nc2ccccc21` [Compound 5, 3-(5-Dimethylaminoindan-1-ylidene)-1,3-dihydroindol-2-one], at IGF-1 receptor, the “cell IGF, outcome of primary assay” value is “DNH”. Further, the pIC50 was 4.10 at Pyk2 (setting [1]), 4.29 on PDGFR (setting [2]) and < 4.00 at EGFR.
With `O=C1Nc2ccccc2/C1=C1\CCc2cc(Cl)ccc21` [Compound 7, 3-(5-Chloroindan-1-ylidene)-1,3-dihydroindol-2-one], the “cell IGF, outcome of primary assay” value at IGF-1 receptor is given as “DNH”. Moreover, the “Pyk2, outcome of primary assay” value at Pyk2 is “DNH”. Moreover, the pIC50 at PDGFR (setting [2]) and at EGFR was < 4.00 throughout.
Turning to `O=C1Nc2ccccc2/C1=C1\CCc2cc(N3CCCCC3)ccc21` [Compound 8, 3-(5-Piperidin-1-yl-indan-1-ylidene)-1,3-dihydroindol-2-one], on IGF-1 receptor, the “cell IGF, outcome of primary assay” value was “DNH”. In addition, the “Pyk2, outcome of primary assay” value on Pyk2 is “DNH”. Also, the negative-log IC50 (pIC50) on PDGFR (setting [2]) and at EGFR was < 4.00 each time.
Consider `O=C1Nc2ccccc2/C1=C1\CCc2cc(Br)ccc21` [Compound 9, 3-(5-Bromoindan-1-ylidene)-1,3-dihydroindol-2-one], for which the “cell IGF, outcome of primary assay” value on IGF-1 receptor is “DNH”. Besides, the pIC50 on PDGFR (setting [2]) and at EGFR was < 4.00 each time.
Turning to `O=C1Nc2ccccc2/C1=C1\CCc2ccccc21` [Compound 10, 3-Indan-1-ylidene-1,3-dihydroindol-2-one], the pIC50 on IGF-1 receptor was < 4.00; on PDGFR (setting [2]), 4.20; on EGFR it was < 4.00.
As for `COc1ccc2c(c1)C(CC(=O)O)C/C2=C1/C(=O)Nc2ccccc21` (stereo not shown) [Compound 11, [6-Methoxy-3-(2-oxo-1,2-dihydroindol-3-ylidene)-indan-1-yl]acetic Acid], the pIC50 at IGF-1 receptor is < 4.00; on Pyk2 (setting [1]), 5.03; at PDGFR (setting [2]), 5.82; at EGFR, < 4.00.
Consider `COc1cc2c(cc1OC)/C(=C1\C(=O)Nc3ccccc31)CC2` [Compound 12, 3-(5,6-Dimethoxyindan-1-ylidene)-1,3-dihydroindol-2-one], for which the pIC50 against IGF-1 receptor, at PDGFR (setting [2]) and at EGFR was < 4.60 throughout. Besides, on Pyk2, the “Pyk2, outcome of primary assay” value is on record as “DNH”.
As for `COc1ccc2c(c1)C(CC(=O)[O-])CC2=C1C(=O)Nc2ccccc21.[Na+]` (stereo not shown) [Compound 13, [6-Methoxy-3-(2-oxo-1,2-dihydroindol-3-ylidene)-indan-1-yl]acetic Acid Sodium Salt], the pIC50 against IGF-1 receptor was < 4.00; on Pyk2, 5.35; against PDGFR (setting [3]), 6.00 and 5.49; on EGFR it was < 4.00.

The pIC50 is −log10 of the IC50, conventionally taken in molar units.

(Values after US6642251B1, “Geometrically restricted 2-indolinone derivatives as modulators of protein kinase activity” (Sugen, Inc., priority 1998, dated 2003).)
